Assay results as given in a melting point compilation (Tetko et al.; mined from patent text by program, amines drawn as free bases though some values may be those of a salt).

Row | Structure (SMILES) | melting point [°C]
1 | CN(C)S(=O)(=O)c1ccc(COc2cccc3c2CN(C2CCC(=O)NC2=O)C3=O)cc1 (configuration not stated) | 261 to 263
2 | O=Cc1ccc2nccc(Oc3ccccc3)c2c1 | 112 to 115
3 | COc1ccnc(N2CCN(C(=O)c3cccs3)CC2)n1 | 143 to 145
4 | CC(C)c1nn2ccccc2c1SC#N | 91 to 92.5
5 | Cc1oc(-c2ccccc2)nc1COc1ccc(CON=C(CCC(=O)O)c2cccnc2)cc1 | 158 to 159
6 | Cc1cc(=O)n(C(=O)Oc2c(C(=O)c3ccc(Cl)cc3Cl)c(C)nn2C)o1 | 180 to 182
7 | COCCOCc1nc2cnc3ccc(OCc4ccccc4)cc3c2n1C | 128 to 132
8 | Cc1c(C(=O)O)oc2c(c1=O)CSc1ccccc1-2 | 299 to 301
9 | O=C(NC1C(=O)Nc2ccccc2SC1c1ccccc1)OCc1ccccc1 (configuration not stated) | 246 to 248
10 | O=C(O)C1=Cc2cc(Cl)c(Oc3ccc(F)c(F)c3)cc2OC1C(F)(F)F (configuration not stated) | 192 to 193
11 | CC(C)Nc1nc(-n2cc(C(=O)O)c(=O)c3cc(F)c(F)c(Cl)c32)c(F)cc1F | 226 to 230
12 | CC#COc1ccc2c(=O)c(C)c(-c3ccccc3)oc2c1 | 179 to 180
13 | CC(C)CC(NC(=O)Cc1ccc(NC(=O)Nc2ccccc2Cl)cc1)c1cc(CCC(=O)O)on1 (configuration not stated) | 143 to 145
14 | Cc1c(C(O)C2CCc3cc4ccccc4n3C2=O)ncn1C(c1ccccc1)(c1ccccc1)c1ccccc1 (configuration not stated) | 85 to 90
15 | COc1ccc(-c2ccccc2-c2c(Cl)nc3ncnn3c2Cl)c(Cl)c1 | 163
16 | COC(=O)C1CC(C#N)(c2ccc(OC(F)F)c(OC3CCCC3)c2)CCC1=O (configuration not stated) | 109 to 110
17 | Nc1cccc(Cl)c1O | 113 to 114
18 | CC(=O)c1cccc(Oc2ncc(C(F)(F)F)cc2F)c1 | 65 to 67
19 | CCCCNC(=O)Oc1ccc(C(O)(CC)c2cccc(C(F)(F)F)c2)cc1 (configuration not stated) | 99 to 100
20 | CC1(C)Cc2c(C(=O)N3CCCC3)sc(Sc3ccccc3)c2-c2oncc21 | 49 to 52
21 | Cn1c(CNCC(C)(C)C)cc2cc(NC(=O)c3ccc(C#CC4(O)CC4)cc3)ccc21 | 173
22 | CC(C)(C)COC(=O)C#CC1C(C(=O)OC(C#N)c2cccc(Oc3ccccc3)c2)C1(C)C (configuration not stated) | 67
23 | CC1(CCOC2CCCCO2)C(=O)NNC1=O (configuration not stated) | 179 to 180
24 | CCOc1ccc(CCNC(=O)c2cnc3ccccc3c2)cc1S(N)(=O)=O | 222 to 231
25 | Cc1cn2c(N)c(Cl)cc(C(=O)NCC3CCN(C(C)C(=O)C(C)(C)C)CC3)c2n1 (configuration not stated) | 207

Row | Structure (SMILES) | melting point [°C]
26 | CC(=O)Nc1ccc(NC2CCN3CCc4ccccc4C3C2)cc1 (configuration not stated) | 210 to 213
27 | O=C(c1ccc(F)cc1)c1ccc(Br)cc1 | 106 to 107
28 | CC(=O)Nc1ccc(F)cc1-c1ccc(Cl)c(Cl)c1 | 138 to 140
29 | Clc1ccc2nc(-n3cccn3)nnc2c1 | 188
30 | OCc1cn2c(n1)CN=C(c1ccccc1)c1cc(Cl)ccc1-2 | 203 to 204
31 | O=C(CS(=O)(=O)c1ccccc1)c1ccnc(Cl)c1 | 124 to 126
32 | CCc1ccc(C)c(NC(=O)C(C)(C)C)n1 | 72 to 75
33 | O=C(Nc1ccc(CN2CCNCC2)cc1)c1cc(=O)c2ccccc2o1 | 138 to 140
34 | O=C(Nc1nc2ccc(Sc3cnc4ccc(-c5cccc(F)c5)cn34)cc2s1)C1CC1 | > 260
35 | COc1cc2c(cc1Nc1ncc(Cl)c(Nc3ccccc3S(=O)(=O)N(C)C)n1)N(CC(=O)N(C)C)C(=O)CN(CC(=O)N(C)C)C2 | 154
36 | Cc1nc(-n2cnn(Cc3ccc(F)cc3)c2=O)sc1C#N | 190 to 192
37 | COc1ccc(COC(=O)C2N3C(=O)C(N4C(=O)c5ccccc5C4=O)C3SCC2(C)O)cc1 (configuration not stated) | 216 to 217
38 | O=S1(=O)Nc2cccc3c2N1CCC3 | 96
39 | CC(=O)N(O)C(C)c1ccc(-c2ccc(OCc3nc4ccccc4s3)cc2)cc1 (configuration not stated) | 197 to 199
40 | CC1CCCN1c1ccc(C#N)c2occc12 (configuration not stated) | 82 to 83
41 | CCC(CC)COc1ccc(-n2cc(C(=O)O)cn2)cc1C#N | 180 to 182
42 | O=C(c1ccccc1)c1ccc(OCCO)cc1 | 82
43 | CN(C(=O)Cc1cccc2[nH]ccc12)C1c2ccccc2CC1N1CCCC1 (configuration not stated) | 202 to 204
44 | COC(=O)COc1cccc(OCCC(c2ccccc2)(c2ccccc2)c2ccccc2)c1 | 103 to 105
45 | O=C(O)c1cccc(CN2C(=O)C3(COc4cc5c(cc43)CCO5)c3ccccc32)c1 (configuration not stated) | > 250
46 | O=c1oc(-c2ccc(S(=O)(=O)c3ccccc3)cc2)cc(O)c1SCCc1ccccc1 | 194 to 195
47 | CC(C)(O)C1CCN(Cc2ccc(COc3cccc4c3CN(C3CCC(=O)NC3=O)C4=O)cc2)CC1 (configuration not stated) | 160 to 162
48 | Fc1cccc2c1OC1CN(Cc3ccccc3)CC1O2 (configuration not stated) | 80 to 81
49 | COC(=O)c1cc2c(C)ccc(C)c2n1C(C)=O | 92 to 93
50 | Brc1cccc(C2Cc3cnc(Nc4ccc(CCNCCN5CCOCC5)cc4)nc3-c3ccccc32)c1 (configuration not stated) | 85 to 87

Row | Structure (SMILES) | melting point [°C]
51 | O=[N+]([O-])c1ccc(Oc2c(Cl)cc(S(=O)(=O)NC(=NO)Nc3ccc(Cl)cc3)cc2Cl)cc1 | 212
52 | CCCCCCCCOc1cc2cc(CO)c(CO)c(-c3ccnc(Cl)c3)c2cc1OC | 98 to 102
53 | [N-]=[N+]=NCc1ccc(C(=O)O)c(Cl)c1 | 87 to 88
54 | CC(C)(C)OC(=O)COc1cc(NC(=O)OC(C)(C)C)c(NC(=O)CC(=O)c2cccc(-n3ccnc3)c2)cc1-c1ccc(F)cc1 | 82 to 85
55 | O=C(Nc1ccc(C(F)(F)F)cc1)NC1CCS(=O)(=O)CC1 | 196 to 198
56 | CCC12CCC3C(=CCC4(C)C(O)CCC34)C1(C)CCC(O)C2 (configuration not stated) | 165
57 | CCOC(=O)c1nc(-c2ccccc2)nc2c1c1ccc(Cl)cc1n2C | 139 to 140
58 | O=CN(CCl)c1ccccc1 | 67
59 | COC(=O)C(CSc1ccccc1)N1CC(NC(=O)C(=NO)c2ccccc2)C1=O (configuration not stated) | 163 to 169
60 | N#CCC(O)(Cn1cncn1)c1ccc(Cl)cc1Cl (configuration not stated) | 217 to 219
61 | COc1ccc2[nH]c(S(=O)Cc3nccc(N4CCOCC4)c3F)nc2c1 (configuration not stated) | 142 to 146
62 | COc1ccc(S(=O)(=O)N2c3cc(F)ccc3-c3ccccc3C2C)cc1 (configuration not stated) | 138 to 139
63 | O=C(NCc1ccc(Cl)cc1)c1cn2c(CCCO)cc3cc(CN4CCOCC4)cc(c1=O)c32 | 171 to 174
64 | CC1(O)c2ccccc2C=C(Br)c2ccncc21 (configuration not stated) | 226 to 230
65 | O=C(c1ccc2[nH]c3ccccc3c2c1)N1CCCCC1 | 221 to 222
66 | Cc1cn(C(C)(C)C(=O)N(C)C)nc1-c1ccccc1Cl | 175 to 176
67 | COC(=O)c1cncn1C1c2ccccc2C(=O)C1(C)C (configuration not stated) | 104 to 108
68 | Cc1ccc2occ(C3CCN(CCc4cc5c(s4)CCCC(=O)N5)CC3)c2c1 | 156 to 158
69 | N=C(N)c1ccc(C(=O)Nc2cc(C(=O)NCCC(=O)O)ccc2OCc2ccccc2)cc1 | > 250
70 | Cc1ccc(CCC(N)CC(=O)O)cc1 (configuration not stated) | 206 to 207
71 | CC(=O)OC1OC(C)C(OCc2ccccc2)C(OCc2ccccc2)C1OCc1ccccc1 (configuration not stated) | 86 to 87.5
72 | O=[N+]([O-])c1ccc(C=Cc2nc(Cl)c3ccccc3n2)o1 | 252 to 254
73 | Nc1nc2c(s1)CCN(CC=Cc1cc(Br)c(N)c(Br)c1)CC2 | 198 to 199
74 | COP(=O)(CC(COc1cccc(C(F)(F)F)c1)=NNC(N)=O)OC | 132 to 133
75 | COC(=O)c1nc(OC(C)=O)cc2c1[nH]c1ccccc12 | 151 to 152

Row | Structure (SMILES) | melting point [°C]
76 | CC1CC(=O)N(CCCCN2C(=O)c3ccccc3C2=O)C1=O (configuration not stated) | 79 to 80
77 | CCCn1c(=O)c2[nH]c(/C=C/c3ccc(C)c(C)c3)nc2n(CCC)c1=O | 253 to 254
78 | CC(=O)c1ccc(F)c(COc2ccc(S(=O)(=O)c3ccc(C)nc3Nc3c(C)cc(C)cc3C)cc2)c1 | 141 to 143
79 | COc1ccc2c(C)c(F)ccc2c1C(F)(F)F | 97 to 99
80 | CN1CCC(c2ccc(Cl)c(Cl)c2)C(CO)C1 (configuration not stated) | 109 to 111
81 | CC1(C)CC(=O)C(C(=O)c2ccc(S(C)(=O)=O)cc2[N+](=O)[O-])C(=O)C1 | 156 to 158
82 | Brc1ccc(-c2ccc(-c3ccc(Br)o3)cc2)o1 | 155 to 157
83 | COC(=O)c1ccc(NC(=O)CC(=O)C(C)C)cc1 | 54 to 56
84 | O=C(/C=C/C=C(c1cccc([N+](=O)[O-])c1)c1cccc([N+](=O)[O-])c1)NCCCCc1cccnc1 | 158 to 159
85 | C=CC(=O)c1ccc([N+](=O)[O-])cc1 | 89 to 90
86 | COC1(C(=O)Nc2ccc(OC(C)C)c(Cl)c2)CC1 | 86 to 87
87 | OC(CSc1ncccn1)CN1CCN(C(c2ccc(F)cc2)c2ccc(F)cc2)CC1 (configuration not stated) | 75 to 76
88 | CC(C)Oc1ccc2c(=O)c3ccc(O)cc3oc2c1 | 268 to 281
89 | COc1ccc(Cn2c(-c3ccco3)nc3c(-c4ccco4)ncnc32)cc1 | 134 to 136
90 | O=CC1c2cccc(Cl)c2C(C=O)c2cccc(Cl)c21 (configuration not stated) | 160 to 172
91 | Cc1cccc(C)c1C(=O)Oc1cc([N+](=O)[O-])cc([N+](=O)[O-])c1OC(=O)c1c(C)cccc1C | 175 to 178
92 | N#Cc1cc(C(=O)NNC(=O)c2occc2-c2ccc(Oc3ccccc3)cc2)ccc1O | 199 to 200
93 | CCc1ccnc(C(=O)c2[nH]c3ccc(C(F)(F)F)cc3c2CC(=O)O)c1 | 204
94 | COc1ccc(C(C)N(C)CCCOc2ccc(S(=O)(=O)c3c(C(C)C)n(C)c4ccccc34)cc2)cc1OC (configuration not stated) | 96
95 | Cc1nc(N)sc1S(=O)(=O)N1CCN(C)CC1 | 188
96 | COc1ccc(-c2ncccc2C=C(Cc2cc3c(cc2OC)OCO3)C(=O)O)c(OCc2ccccc2C(=O)O)c1 | 135 to 140
97 | CN1CC=C(c2c[nH]c3ccc(NC(=S)NC(=O)c4ccccc4)cc23)CC1 | 182 to 184
